Results taken from PMC12244496 (bioRxiv, 2025).
Where no end group is shown, it is not given here. [ ]: non-standard residue; d: D form. Lys(Me3) = C[N+](C)(C)CCCC[C@H](N)C(=O)O

Tests used:
[1] = system: mESCs; assay: Recovery of H3K27me1/2/3 in mESCs after tazemetostat treatment; assay type: cell-based, mouse; details: 10 μM for 7 days
[2] = molecular target: core PRC2 (Homo sapiens, UniProt O75530+Q15910); assay: PRC2-core activity assay; assay type: biochemical; details: 50 μM peptide; histone H3 peptide (residues 21–44) substrate
Chain of core PRC2 (Q15910 whole entry, the tested form may be a part): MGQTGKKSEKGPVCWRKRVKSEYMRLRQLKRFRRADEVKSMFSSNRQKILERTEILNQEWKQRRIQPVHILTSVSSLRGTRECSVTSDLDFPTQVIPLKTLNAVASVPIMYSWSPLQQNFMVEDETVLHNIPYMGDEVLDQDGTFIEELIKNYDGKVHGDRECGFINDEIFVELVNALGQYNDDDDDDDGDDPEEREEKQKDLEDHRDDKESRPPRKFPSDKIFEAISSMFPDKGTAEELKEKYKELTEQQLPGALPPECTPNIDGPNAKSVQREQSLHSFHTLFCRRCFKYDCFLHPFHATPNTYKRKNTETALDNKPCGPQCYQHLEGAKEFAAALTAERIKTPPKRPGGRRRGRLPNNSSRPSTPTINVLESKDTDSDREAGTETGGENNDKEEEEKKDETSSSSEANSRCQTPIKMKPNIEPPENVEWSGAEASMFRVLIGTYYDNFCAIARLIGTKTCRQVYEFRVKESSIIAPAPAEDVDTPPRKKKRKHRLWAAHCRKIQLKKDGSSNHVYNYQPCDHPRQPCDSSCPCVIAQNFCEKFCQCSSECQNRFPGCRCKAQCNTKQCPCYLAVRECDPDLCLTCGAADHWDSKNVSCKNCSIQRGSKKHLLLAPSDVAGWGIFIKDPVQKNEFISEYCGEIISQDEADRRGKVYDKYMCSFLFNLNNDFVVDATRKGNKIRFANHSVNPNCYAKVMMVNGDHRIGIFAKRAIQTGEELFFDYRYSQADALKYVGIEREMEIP
Chain of core PRC2 (O75530 whole entry, the tested form may be a part): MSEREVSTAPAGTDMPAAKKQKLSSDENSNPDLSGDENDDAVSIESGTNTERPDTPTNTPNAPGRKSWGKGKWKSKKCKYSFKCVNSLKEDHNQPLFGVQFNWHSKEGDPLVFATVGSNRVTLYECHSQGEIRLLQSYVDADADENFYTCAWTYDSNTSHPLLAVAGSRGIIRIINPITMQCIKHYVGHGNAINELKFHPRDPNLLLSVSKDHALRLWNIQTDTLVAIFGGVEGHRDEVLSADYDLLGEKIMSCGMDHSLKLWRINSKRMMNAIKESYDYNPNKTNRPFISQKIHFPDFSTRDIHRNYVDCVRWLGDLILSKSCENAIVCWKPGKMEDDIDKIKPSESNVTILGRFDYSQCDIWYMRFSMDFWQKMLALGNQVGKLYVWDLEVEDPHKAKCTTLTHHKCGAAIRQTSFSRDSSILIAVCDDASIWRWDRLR
Chain of core PRC2 (Q15022 whole entry partner, the tested form may be a part): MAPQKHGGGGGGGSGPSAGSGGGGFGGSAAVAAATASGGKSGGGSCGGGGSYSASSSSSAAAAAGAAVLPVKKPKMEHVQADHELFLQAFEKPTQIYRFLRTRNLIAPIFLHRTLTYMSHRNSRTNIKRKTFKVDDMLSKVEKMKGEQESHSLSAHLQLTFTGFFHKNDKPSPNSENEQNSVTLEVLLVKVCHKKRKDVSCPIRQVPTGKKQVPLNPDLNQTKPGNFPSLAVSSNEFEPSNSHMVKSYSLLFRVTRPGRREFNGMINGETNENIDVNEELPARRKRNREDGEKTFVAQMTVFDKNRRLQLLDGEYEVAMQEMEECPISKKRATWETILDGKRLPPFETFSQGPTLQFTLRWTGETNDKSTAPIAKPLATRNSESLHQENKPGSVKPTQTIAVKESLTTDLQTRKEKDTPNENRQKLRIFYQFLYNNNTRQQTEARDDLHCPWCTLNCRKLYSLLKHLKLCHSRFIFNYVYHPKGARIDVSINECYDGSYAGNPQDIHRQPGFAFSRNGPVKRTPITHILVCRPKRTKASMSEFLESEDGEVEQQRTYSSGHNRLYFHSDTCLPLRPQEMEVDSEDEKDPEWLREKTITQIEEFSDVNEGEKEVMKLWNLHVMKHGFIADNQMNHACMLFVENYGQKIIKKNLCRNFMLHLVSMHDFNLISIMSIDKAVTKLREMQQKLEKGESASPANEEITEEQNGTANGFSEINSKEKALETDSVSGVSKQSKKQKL
Chain of core PRC2 (Q09028 whole entry partner, the tested form may be a part): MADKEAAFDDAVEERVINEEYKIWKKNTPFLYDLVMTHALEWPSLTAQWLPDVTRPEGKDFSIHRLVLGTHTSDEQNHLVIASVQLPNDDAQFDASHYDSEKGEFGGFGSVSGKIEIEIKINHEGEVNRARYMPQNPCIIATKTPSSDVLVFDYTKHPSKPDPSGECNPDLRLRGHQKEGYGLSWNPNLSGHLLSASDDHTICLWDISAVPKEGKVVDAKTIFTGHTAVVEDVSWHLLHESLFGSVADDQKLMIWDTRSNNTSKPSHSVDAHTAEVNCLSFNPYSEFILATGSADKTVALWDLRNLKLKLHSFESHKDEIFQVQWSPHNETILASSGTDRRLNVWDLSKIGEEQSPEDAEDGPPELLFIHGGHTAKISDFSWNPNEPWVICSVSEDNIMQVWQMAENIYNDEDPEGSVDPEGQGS

Compound	depletion of H3K27me1/2/3 [1]	PRC2 activity (%) [2]
CCN(c1cc(-c2ccc(CN3CCOCC3)cc2)cc(C(=O)NCc2c(C)cc(C)[nH]c2=O)c1C)C1CCOCC1 [tazemostat, tazemetostat]	completely depleted	–
KAAR[Lys(Me3)]SAPA [compound 2]	–	583±28%
TKAAR[Lys(Me3)]SA [compound 4]	–	485±93%
